The assay deals with P388 leukemia ip, CD2F1 mice, survival T/C. The experiment in a line: NCI In Vivo Anticancer Drug Screen. Data for tumor model P388 Leukemia (intraperitoneal) in CD2F1 (CDF1) mice. As to conditions: endpoint: median survival time, higher = longer survival. The procedure, abridged:
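Mice carrying the transplanted tumor received test compound or vehicle. Survival was recorded in each group, and the value is the treated-group measurement divided by that of the vehicle-treated control group.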

The mark [1] stands for this setting: dose: 25.0 mg/kg/injection, schedule: Q01DX009 (ip), vehicle: saline with Tween-80.
The mark [2] stands for this setting: dose: 50.0 mg/kg/injection, schedule: Q01DX009 (ip), vehicle: saline with Tween-80.
The mark [3] stands for this setting: dose: 100.0 mg/kg/injection, schedule: Q01DX009 (ip), vehicle: saline with Tween-80.
Where [4] appears, read: dose: 25.0 mg/kg/injection, schedule: Q01DX009 (ip), vehicle: Klucel (hydroxypropylcellulose) (HPC).
The mark [5] stands for this setting: dose: 50.0 mg/kg/injection, schedule: Q01DX009 (ip), vehicle: Klucel (hydroxypropylcellulose) (HPC).
The mark [6] stands for this setting: dose: 100.0 mg/kg/injection, schedule: Q01DX009 (ip), vehicle: Klucel (hydroxypropylcellulose) (HPC).
The mark [7] stands for this setting: dose: 50.0 mg/kg/injection, schedule: Q01DX009 (ip), vehicle: saline.
The mark [8] stands for this setting: dose: 100.0 mg/kg/injection, schedule: Q04DX002 (ip), vehicle: saline with Tween-80.
Setting [9] is: dose: 200.0 mg/kg/injection, schedule: Q04DX002 (ip), vehicle: saline with Tween-80.
[10] abbreviates: dose: 400.0 mg/kg/injection, schedule: Q04DX002 (ip), vehicle: saline with Tween-80.
Setting [11] is: dose: 12.5 mg/kg/injection, schedule: Q01DX009 (ip), vehicle: saline with Tween-80.
Setting [12] is: dose: 60.0 mg/kg/injection, schedule: Q01DX005 (ip), vehicle: saline with Tween-80.
Setting [13] is: dose: 120.0 mg/kg/injection, schedule: Q01DX005 (ip), vehicle: saline with Tween-80.

Structures are written as SMILES. “And” between values parts separate entries of the source, which are not always exact repeats. Identical values can stand only once. Inconclusive results and toxic doses are left out.

For `O=C(c1ccccc1)C1C(c2ccccc2)SC(c2ccccc2)CC1(O)Cl` (centres undefined), the T/C is, setting by setting: (dose: 100.0 mg/kg/injection, schedule: Q04DX002 (ip), vehicle: Klucel (hydroxypropylcellulose) (HPC)) 87 % of control; (dose: 200.0 mg/kg/injection, schedule: Q04DX002 (ip), vehicle: Klucel (hydroxypropylcellulose) (HPC)) 87 % of control; (dose: 400.0 mg/kg/injection, schedule: Q04DX002 (ip), vehicle: Klucel (hydroxypropylcellulose) (HPC)) 87 % of control.
In the case of `Cc1cc2cc3c(=O)n(C)c(=O)nc-3n(CC(O)C(O)C(O)CO)c2cc1C` (centres undefined), the T/C runs as follows: (dose: 15.0 mg/kg/injection, schedule: Q01DX009 (ip), vehicle: saline with Tween-80) 98 % of control; (dose: 30.0 mg/kg/injection, schedule: Q01DX009 (ip), vehicle: saline with Tween-80) 98 % of control; (dose: 60.0 mg/kg/injection, schedule: Q01DX009 (ip), vehicle: saline with Tween-80) 113 % of control.
With `CCCNCCC(O)c1cc(C(F)(F)F)nc2c(C(F)(F)F)cccc12` (centres undefined), the T/C under setting [1] is 102 % of control, the T/C under setting [2] is 110 % of control and the T/C under setting [3] is 109 % of control.
For `CCCCCCC(/C=C/c1ccc(Cl)cc1)=N\O`, the T/C is 106 % of control under setting [4]; 104 % of control under setting [5]; 100 % of control and 108 % of control under setting [6].
Regarding `CC1C(O)[C@@]2(OC[C@@]34C(=O)CC5(O)[C@H](CCC6Cc7nc8c(nc7C[C@]65C)CC5CC[C@@H]6C7=C[C@H]9O[C@@]%10(O[C@@](C)(CO)C[C@@H]%10O)C(C)[C@@]9(O)[C@]7(C)[C@@H](O)CC6[C@]5(C)C8)C3=CC[C@H]4C2C)OC1(C)C` (some centres undefined), the T/C is, setting by setting: (dose: 10.0 micrograms/kg/injection, schedule: Q01DX005 (ip), vehicle: saline + alcohol) 117 % of control and 121 % of control; (dose: 20.0 micrograms/kg/injection, schedule: Q01DX005 (ip), vehicle: saline + alcohol) 115 % of control and 117 % of control; (dose: 40.0 micrograms/kg/injection, schedule: Q01DX005 (ip), vehicle: saline + alcohol) 123 % of control and 124 % of control; (dose: 40.0 micrograms/kg/injection, schedule: Q01DX009 (ip), vehicle: saline + alcohol) 115 % of control.
In the case of `O=C(CI)Nc1cccc(C(=O)O)c1O`, the T/C (dose: 12.5 mg/kg/injection, schedule: Q01DX009 (ip), vehicle: Klucel (hydroxypropylcellulose) (HPC)) was 101 % of control; the T/C under setting [4] was 113 % of control; the T/C under setting [5] was 99 % of control.
For the compound `CC1C2CCC3C4CC=C5CC(N(C)C)CCC5(C)C4CCC32CN1C` (centres undefined), the T/C by setting is: (dose: 12.5 mg/kg/injection, schedule: Q01DX005 (ip), vehicle: Klucel (hydroxypropylcellulose) (HPC)) 105 % of control; (dose: 12.5 mg/kg/injection, schedule: Q01DX005 (ip), vehicle: saline) 94 % of control; (dose: 25.0 mg/kg/injection, schedule: Q01DX005 (ip), vehicle: Klucel (hydroxypropylcellulose) (HPC)) 105 % of control; (dose: 25.0 mg/kg/injection, schedule: Q01DX005 (ip), vehicle: saline) 94 % of control; (dose: 25.0 mg/kg/injection, schedule: Q01DX009 (ip), vehicle: saline) 105 % of control; (dose: 50.0 mg/kg/injection, schedule: Q01DX005 (ip), vehicle: Klucel (hydroxypropylcellulose) (HPC)) 103 % of control and 113 % of control. Besides, the T/C was 106 % of control and 107 % of control (dose: 50.0 mg/kg/injection, schedule: Q01DX005 (ip), vehicle: saline); 88 % of control under setting [7].
Regarding `CN1C2CCC1C(C(=O)O)C(O)C2` (centres undefined), the T/C is, setting by setting: under setting [8], 101 % of control; under setting [9], 96 % of control; under setting [10], 92 % of control.
For the compound `C1CC[N-]CC1.CC(=N\O)/C(C)=N/O.CC(=N\O)/C(C)=N/O.N#C[CH-]CC#N.[Co+2]`, the T/C by setting is: under setting [11], 91 % of control; under setting [1], 96 % of control; under setting [2], 97 % of control; under setting [3], 92 % of control.
`CS(=O)(=O)N1C2CC3CCCCC3CC21` (centres undefined): the T/C runs as follows: (dose: 25.0 mg/kg/injection, schedule: Q04DX002 (ip), vehicle: saline with Tween-80) 99 % of control; (dose: 50.0 mg/kg/injection, schedule: Q04DX002 (ip), vehicle: saline with Tween-80) 99 % of control; under setting [8], 105 % of control and 110 % of control; under setting [9], 112 % of control; under setting [10], 112 % of control.
On to `Cc1cc(C)c2c(c1)CC(C)(C)C(=O)OC2=O`, for which the T/C by setting is: under setting [12], 107 % of control; under setting [13], 101 % of control.
Consider `COC(=O)Nn1c(C)c(C(=O)Nc2ccc(OC)cc2)c(C(=O)OC)c1C`, for which the T/C under setting [12] was 97 % of control; the T/C under setting [13] was 100 % of control; the T/C (dose: 240.0 mg/kg/injection, schedule: Q01DX005 (ip), vehicle: saline with Tween-80) was 97 % of control.
`CC(C)(C)C(=O)Nc1ccc(S(=O)(=O)Nc2ccc(N)cc2O)cc1`: the T/C was 112 % of control under setting [5]; 97 % of control under setting [6]; 115 % of control (dose: 200.0 mg/kg/injection, schedule: Q01DX009 (ip), vehicle: Klucel (hydroxypropylcellulose) (HPC)).
For the compound `O=C1OC2CSCC2O1` (centres undefined), the T/C was 96 % of control under setting [7]; 104 % of control (dose: 100.0 mg/kg/injection, schedule: Q01DX009 (ip), vehicle: saline); 101 % of control (dose: 200.0 mg/kg/injection, schedule: Q01DX009 (ip), vehicle: saline).
`COc1cc([C@H]2c3cc(O)c(OC)cc3C[C@]3(O)[C@@H]2CO[C@@H]3O)ccc1O`: the T/C was 104 % of control (dose: 4.75 mg/kg/injection, schedule: Q01DX005 (ip), vehicle: saline with Tween-80); 95 % of control (dose: 9.5 mg/kg/injection, schedule: Q01DX005 (ip), vehicle: saline with Tween-80); 96 % of control (dose: 19.0 mg/kg/injection, schedule: Q01DX005 (ip), vehicle: saline with Tween-80); 99 % of control (dose: 38.0 mg/kg/injection, schedule: Q01DX005 (ip), vehicle: saline with Tween-80).
Consider `O=C(O)C(O)C(F)(F)C(F)(F)C(F)(F)F` (centres undefined), for which the T/C is 97 % of control (dose: 50.0 mg/kg/injection, schedule: Q01DX005 (ip), vehicle: saline with Tween-80); 94 % of control (dose: 100.0 mg/kg/injection, schedule: Q01DX005 (ip), vehicle: saline with Tween-80); 88 % of control (dose: 200.0 mg/kg/injection, schedule: Q01DX005 (ip), vehicle: saline with Tween-80).
In the case of `CNC(C)=O`, the T/C was 95 % of control under setting [3]; 90 % of control (dose: 100.0 mg/kg/injection, schedule: Q04DX003 (ip), vehicle: saline); 95 % of control (dose: 200.0 mg/kg/injection, schedule: Q01DX009 (ip), vehicle: saline with Tween-80); 95 % of control (dose: 200.0 mg/kg/injection, schedule: Q04DX003 (ip), vehicle: saline); 95 % of control (dose: 400.0 mg/kg/injection, schedule: Q01DX009 (ip), vehicle: saline with Tween-80); 100 % of control (dose: 400.0 mg/kg/injection, schedule: Q04DX003 (ip), vehicle: saline).
In the case of `CCCCCCCCCCCCCC(=O)OCCN1CCN(CCCN2c3ccccc3Sc3ccc(C(F)(F)F)cc32)CC1`, the T/C is, setting by setting: (dose: 3.12 mg/kg/injection, schedule: Q01DX009 (ip), vehicle: saline with Tween-80) 106 % of control; (dose: 6.25 mg/kg/injection, schedule: Q01DX009 (ip), vehicle: saline with Tween-80) 102 % of control; under setting [11], 112 % of control and 113 % of control; under setting [1], 116 % of control.
On to `O=C1c2ccccc2CCC1Cl` (centres undefined), for which the T/C was 100 % of control (dose: 1.56 mg/kg/injection, schedule: Q01DX009 (ip), vehicle: DMSO); 103 % of control (dose: 3.12 mg/kg/injection, schedule: Q01DX009 (ip), vehicle: DMSO); 94 % of control and 97 % of control (dose: 6.25 mg/kg/injection, schedule: Q01DX009 (ip), vehicle: DMSO); 102 % of control (dose: 12.5 mg/kg/injection, schedule: Q01DX009 (ip), vehicle: DMSO); 94 % of control (dose: 25.0 mg/kg/injection, schedule: Q01DX009 (ip), vehicle: DMSO).
Consider `Cc1cc(NCCCNCCCNc2cc(C)nc3cc([N+](=O)[O-])ccc23)c2ccc([N+](=O)[O-])cc2n1`, for which the T/C (dose: 12.5 mg/kg/injection, schedule: Q01DX009 (ip), vehicle: other) is 150 % of control and the T/C (dose: 25.0 mg/kg/injection, schedule: Q01DX009 (ip), vehicle: other) is 121 % of control.

The record behind these values is PubChem BioAssay AID330 (DTP/NCI, 2004).
